According to patent US12509421B2, “Preparation and application of deuterated 4-phenyl-4-piperidinols” (priority 2022, dated 2025):
Structures can show the parent of a compound that is named as a salt.

Columns and labels:
CYP 2D6 = CYP 2D6 (Homo sapiens, UniProt P10635); test: Inhibition of cytochrome P450 enzyme in human liver microsomes, CYP 2D6
[1] = Metabolic stability in liver microsomes, rat; details: for half-life at 2 μM / microsomal CLint at 2 μM: rat, microsomes, pH 7.4
Protocol: (§1) The solution B is slowly dropped into solution A, and the pH is adjusted to 7.40±0.05.
(§2) • Control drug: 4 μL Verapamil solution (10 mM) is added with 96 μL DMSO and diluted to 400 μM; • Compound to be tested: 4 μL compound to be tested (10 mM) is added with 96 μL normal saline and diluted to 400 μM.
(§3) The microsomes are stored in the refrigerator at −80° C., thawed at room temperature after being taken out, and mixed gently.
(§4) […] PBS (100 mm, pH=7.4) solution is added to the negative sample. The solution is put into water bath at 37° C. and pre-incubated for 10 minutes; • B) After incubation, 2 μL reference drug or compound to be tested (400 μM) are added into each well to start the reaction.

Female Kunming mice = test: Hot plate analgesia test in mice; type: in vivo; details: intraperitoneal, 55° C. hot plate; for ED50: Mus musculus, ip
Protocol: Female Kunming mice weighing about 20 g are placed on a hot plate instrument preheated to 55° C., and the latency of licking hind feet or lifting hind feet is used as the pain threshold index. Animals are screened before the experiment, and animals with latency less than 5 s or more than 30 s are excluded. To prevent foot burns, the longest observation time is set to 60s. The basic pain threshold is the average of two measurements, and the interval between the two measurements is 5 minutes. The pain threshold of mice in each group is determined at 15 minutes, 30 minutes, 60 minutes and 120 minutes after intraperitoneal administration. The effective percentage of analgesia (% MPE) is calculated according to the following formula
[formula] According to the effective percentage of analgesia, the ED50 value is calculated by graphpad prism 5.0 software.

ICR mice = test: Evaluation of side effects of constipation (defecation time, number, weight); type: in vivo; details: for Number of defecating animals: 10 mice per group; for Number of defecating animals / Fecal weight: within 5 hours; for Defecation time: first black stool; for Defecation time / water content of feces / Fecal weight: x ± SE; for Defecation time / water content of feces: only animals that defecate within 5 hours
Protocol: Constipation side effect is a common side effect of opioid drugs. This patent evaluates the possibility of constipation side effect by the influence of the compound on defecation time, defecation quantity and defecation weight of experimental animals.
ICR mice are randomly divided into 6 groups with 10 mice in each group after adaptive feeding. Fasting for 16-24 h, without stopping drinking, the blank control group is given solvent, during which the normal diet is: (1) the blank control group; (2) Compound diphenoxylate (7.5 mg/kg) group; (3) Low dose (1 mg/kg) group; (4) High dose (5 mg/kg) group of the compound to be tested.
After administration for 30 minutes, the mice in each group are given Chinese ink by gavage. After administration, the mice are kept in a single cage, and the excretion time of the first black stool is recorded. The number and weight (wet weight) of defecation particles in each mouse within 5 hours after administration are recorded. each group of mice are placed in an IVC cage with clean filter paper. The feces of each mouse are collected, put into a sterile 1.5 ml EP tube and stored in an ice box. During the collection, the number of defecation particles of each mouse is recorded, and the wet weight is weighed. After the collected feces are dried, the dry weight of the feces is recorded. Drying conditions: put fresh feces in an oven and bake at 100° C. for 5-10 minutes until the dry weight of feces is constant. The following formula is used to calculate the water content of feces, and the water content of feces (%)=(wet feces mass−dry feces mass)/wet feces mass×100%.
The data required for measurement and observation in this experiment are recorded in the corresponding table. All data are statistically processed by Microsoft Excel, and expressed as “mean standard error”. The data of each group are statistically analyzed by SPSS software package.

[2] = Metabolic stability in liver microsomes, human; details: for half-life at 2 μM / microsomal CLint at 2 μM: human, microsomes, pH 7.4
Protocol: as §1, §2, §3, §4

CYP 2C19 = CYP 2C19 (Homo sapiens, UniProt P33261); test: Inhibition of cytochrome P450 enzyme in human liver microsomes, CYP 2C19
κOR = target: T1, κOR (Homo sapiens, UniProt P41145); test: Opioid receptor competitive binding test, κOR; details: compound at 10 μM; [3H]-labeled ligand; CHO cell membranes; ± SD of three measurements
T1 construct: expressed in transfected cells; host or cells: CHO cells
Protocol: (§5) CHO cells expressing p opioid receptor, δ opioid receptor and K opioid receptor are cultured in a 10 cm^2 Petri dish (F-12 medium+10% newborn bovine serum) for several days, and the culture solution is sucked after the cells grew to the bottom of the dish. 3 ml PBS/EDTA solution (0.1M NaCl, 0.01M NaH2PO4, 0.04% EDTA) is added for digestion for 3-5 minutes. The cells are blown with a straw to get fall off completely, collected in a 40 ml centrifuge tube, centrifuged at 5000 rpm for 5 minutes, and removed with the supernatant. The centrifuge tube is added with ice-cold homogenate (50 mM HEPES PH 7.4, 3 mM MgCl2, 1 mM EGTA). The solution and precipitate are transferred to homogenizer for homogenization; Then the homogenate is transferred into a centrifuge tube, centrifuged at 18000 rpm for 15 minutes, and centrifuged twice; the obtained precipitate is added with an appropriate amount of buffer solution of 50 mM Tris-HCl and pH 7.4, homogenized and sub-packaged in centrifuge tubes. The product is stored in a refrigerator at −70° C. for later use.
(§6) 20-30 μg expressed membrane receptor protein and [3H]-labeled ligand (1-2 nM) are added to the total binding tube, added with 1 μM of corresponding ligand to the corresponding nonspecific binding tube. Various screened opioid ligand drugs (see the drug compounds in Table 1 below) are added to the sample tube with 100 μL final volume. The sample is incubated at 30° C. for 30 minutes, and the reaction is terminated in ice water. The glass fiber filter paper gF/C (whatman) is used for negative pressure filtration on Millipore sample collector. The sample is eluted with 4 ml 50 mm tris-HCl (pH 7.4) for three times, dried with the filter paper, put in 0.5 ml Eppendorf tube and added with 0.5 ml lipophilic scintillation liquid. The radioactive intensity is measured with PERKIN ELMER PRI-CARB 2910 liquid scintillation counter with calculation of the inhibition rate. The experiment is repeated for more than three times, with three compound tubes in each group. Inhibition rate(or binding rate)=(total binding rate dpm−sample tube dpm)/(total binding tube dpm-nonspecific binding tube dpm)×100%
(§7) IC50 is calculated with Prism 5.0 software. The Ki value is calculated according to the following formula: Ki=IC50/(1^+[L]/Kd), wherein [L] is the concentration of the added labeled ligand, and Kd is the equilibrium dissociation parameter of the labeled ligand.

μOR = target: T2, μOR (Homo sapiens, UniProt P35372); test: Opioid receptor competitive binding test, μOR; details: compound at 10 μM; [3H]-labeled ligand; CHO cell membranes; ± SD of three measurements
T2 construct: expressed in transfected cells; host or cells: CHO cells
Protocol: as §5, §6, §7

[3] = Rat liver microsomes 0.5 mg/mL, NADPH 1 mM, compound 2 μM
[4] = Human liver microsomes 0.5 mg/mL, NADPH 1 mM, compound 2 μM

Compound | IC50 (CYP 2D6) [µM] | half-life at 2 μM [1] [min] | microsomal CLint at 2 μM [1] [µL/min/mg] | ED50 (Female Kunming mice) [mg/kg] | Number of defecating animals (ICR mice; 1 mg/kg) | Defecation time (ICR mice; 1 mg/kg) [min] | water content of feces (ICR mice; 1 mg/kg) [%] | Fecal weight (ICR mice; 1 mg/kg) [g] | Number of defecating animals (ICR mice; 5 mg/kg) | Defecation time (ICR mice; 5 mg/kg) [min] | water content of feces (ICR mice; 5 mg/kg) [%] | Fecal weight (ICR mice; 5 mg/kg) [g] | half-life at 2 μM [2] [min] | microsomal CLint at 2 μM [2] [µL/min/mg] | IC50 (CYP 2C19) [µM] | κOR binding rate (κOR) [%] | μOR binding rate (μOR) [%] | further results
[2H]C([2H])([2H])N(C)C[C@@H]1CN(C(=O)Cc2cc(F)c(F)cc2F)CC[C@@]1(O)c1cccc(OC)c1 [II-7hydrochloride, 1-((3R,4S)-4-hydroxy-4-(3-methoxyphenyl)-3-(((methyl-d3)amino)methyl)-1-piperidinyl)-2(2,4,5-trifluorophenyl)ethyl-1-one] | 14.7 | 5.68 | 689 | 0.51 | 9 | 109.0 ± 8.8 | 44.8 ± 3.2 | 0.3846 ± 0.0798 | 3 | 200.6 ± 7.9 | 38.6 ± 7.9 | 0.0612 ± 0.0079 | 5.42 | 681 | > 50 | 16.6 ± 2.9 | 26.1 ± 2.3 | 
[2H]C([2H])([2H])Oc1cccc([C@]2(O)CCN(S(=O)(=O)Cc3ccccc3)C[C@H]2CN(C([2H])([2H])[2H])C([2H])([2H])[2H])c1 [II-5hydrochloride] | 15.3 | 6.59 | 763 | 0.58 | 8 | 160.1 ± 9.9 | 42.7 ± 1.9 | 0.3389 ± 0.0902 | 2 | 202.8 ± 4.2 | 37.6 ± 8.6 | 0.0478 ± 0.0061 | 6.25 | 704 | > 50 | 15.8 ± 4.6 | 27.1 ± 1.2 | 
[2H]C([2H])([2H])N(C)C[C@@H]1CN(S(=O)(=O)Cc2ccccc2)CC[C@@]1(O)c1cccc(OC)c1 [II-1hydrochloride] | 13 | 5.63 | 701 | 0.52 | 9 | 105.9 ± 10.5 | 43.5 ± 2.6 | 0.3682 ± 0.0816 | 3 | 202.4 ± 6.2 | 38.2 ± 8.6 | 0.0586 ± 0.0065 | 5.22 | 663 | > 50 | 16.37 ± 1.6 | 27.9 ± 1.3 | 
[2H]C([2H])([2H])Oc1cccc([C@]2(O)CCN(C(=O)Cc3cc(F)c(F)cc3F)C[C@H]2CN(C([2H])([2H])[2H])C([2H])([2H])[2H])c1 [II-11hydrochloride] | 12.8 | 6.46 | 747 | 0.64 | 8 | 190.3 ± 12.7 | 43.5 ± 2.8 | 0.3402 ± 0.0828 | 2 | 265.9 ± 13.1 | 38.2 ± 9.5 | 0.0496 ± 0.0067 | 6.18 | 711 | > 50 | 16.4 ± 2.3 | 24.3 ± 1.9 | 
COc1cccc([C@]2(O)CCN(S(=O)(=O)Cc3ccccc3)C[C@H]2CN(C)C)c1.Cl [Example 20 of CN201911076305.X, reference compound] |  |  |  |  | 9 | 281 ± 4 | 19.6 ± 4.5 | 0.1243 ± 0.0153 |  |  | 0 | 0 |  |  |  | 15.25 ± 1.56 | 27.52 ± 1.54 | CLint [1, 3]: 747.68 μL/min/mg protein; t1/2 [1, 3]: 1.85 min; ED50, hot plate (Female Kunming mice): 0.49 mg/kg; Number of defecating animals (ICR mice; 5 mg/kg, hydrochloride): 0; Number of defecating animals (ICR mice; 5 mg/kg, listed as Example 20 in patent CN201911076305.X, hydrochloride): did not defecate; constipation in experimental animals (ICR mice; comparative experiments of the inventor): can cause constipation in experimental animals in a dose-dependent manner; CLint [2, 4]: 950.42 μL/min/mg protein; t1/2 [2, 4]: 1.46 min
